Measurements as given in ChEMBL document CHEMBL3407417 (J Med Chem, 2015).
pIC50: −log10 of the molar value. In brackets after ≈: the same amount, converted by molar mass.

Legend:
[1] = Oral bioavailability in Sprague-Dawley rat at 1 mg/kg; type: ADME, organism-based; conditions: in vivo
[2] = Thermodynamic solubility of the compound in buffer containing 20 mmol/L of sodium taurocholate at pH 6.8; type: physicochemical; conditions: buffer containing 20 mmol/L sodium taurocholate, read-out: Therm_solubility
[3] = Volume of distribution at steady state in Sprague-Dawley rat at 0.5 mg/kg, iv; type: ADME, organism-based; design: dose 0.5 mg/kg, route intravenous; conditions: in vivo, read-out: Vdss
[4] = Stability in rat liver microsomes assessed as compound remaining after 30 mins; type: ADME; conditions: read-out: Stability
[5] = Plasma clearance in Sprague-Dawley rat at 0.5 mg/kg, iv; type: ADME, organism-based; design: dose 0.5 mg/kg, route intravenous
[6] = cells; conditions: Homo sapiens, MIA PaCa-2, 72 h
Description: Antiproliferative activity against human MIAPaCa2 cells after 72 hrs by WST8 assay

[7] = cells; conditions: Homo sapiens, GSS, 72 h
Description: Antiproliferative activity against human GSS cells after 72 hrs by WST8 assay

[8] = cells; conditions: Homo sapiens, HCT-15, 72 h
Description: Antiproliferative activity against human HCT15 cells after 72 hrs by WST8 assay

[9] = cells; conditions: Homo sapiens, MKN-45, 72 h
Description: Antiproliferative activity against human MKN45 cells after 72 hrs by WST8 assay

[10] = cells; conditions: Homo sapiens, HL-60, 72 h
Description: Antiproliferative activity against human HL60 cells after 72 hrs by WST8 assay

[11] = cells; conditions: Homo sapiens, LC-2-ad, 72 h
Description: Antiproliferative activity against human LC2/ad cells after 72 hrs by WST8 assay

[12] = tested on: NCI-H358; assay: Antiproliferative activity against human NCI-H358 cells after 72 hrs by WST8 assay; type: functional, cell-based; conditions: NCI-H358, 72 h
[13] = cells; conditions: Homo sapiens, Lu116, 72 h
Description: Antiproliferative activity against human Lu116 cells after 72 hrs by WST8 assay

[14] = tested on: MRC5; assay: Antiproliferative activity against human MRC5 cells after 72 hrs by WST8 assay; type: cell-based; conditions: MRC5, 72 h
[15] = tested on: HT-29; assay: cells; conditions: Homo sapiens, HT-29, 72 h
Description: Antiproliferative activity against human HT-29 cells after 72 hrs by WST8 assay

[16] = cells; conditions: Homo sapiens, LU-99A, 72 h
Description: Antiproliferative activity against human LU99A cells after 72 hrs by WST8 assay

[17] = cells; conditions: Homo sapiens, HCT-116, 72 h
Description: Antiproliferative activity against human HCT116 cells after 72 hrs by WST8 assay

[18] = cells; conditions: Homo sapiens, PC-14, 72 h
Description: Antiproliferative activity against human PC14 cells after 72 hrs by WST8 assay

[19] = AUC in Sprague-Dawley rat at 1 mg/kg, po; type: ADME, organism-based; design: dose 1 mg/kg, route oral; conditions: plasma
[20] = Cmax in Sprague-Dawley rat at 1 mg/kg, po; type: ADME, organism-based; design: dose 1 mg/kg, route oral; conditions: in vivo
[21] = tested on: NCI-H460; assay: Antitumor activity against human NCI-H460 cells xenografted in nude mouse assessed as tumor growth inhibition at 2.5 mg/kg, po qd for 2 weeks relative to control; type: functional
[22] = tested on: Mus musculus; assay: Toxicity in human NCI-H460 cells xenografted nude mouse assessed as body weight loss at 2.5 mg/kg, po qd for 2 weeks relative to control; type: organism-based; design: dose 2.5 mg/kg, route oral; conditions: in vivo, 336 h
[23] = Tmax in BALB/c AJcl-nu/nu mouse at 100 mg/kg, po; type: ADME, organism-based; design: dose 100 mg/kg, route oral; conditions: in vivo
[24] = Tmax in BALB/c AJcl-nu/nu mouse at 10 mg/kg, po; type: ADME, organism-based; design: dose 10 mg/kg, route oral; conditions: in vivo
[25] = tested on: Mus musculus; assay: Toxicity in human NCI-H460 cells xenografted nude mouse assessed as body weight loss at 5 mg/kg, po qd for 2 weeks relative to control; type: organism-based; design: dose 5 mg/kg, route oral; conditions: in vivo, 336 h
[26] = AUC in BALB/c AJcl-nu/nu mouse at 100 mg/kg, po; type: ADME, organism-based; design: dose 100 mg/kg, route oral; conditions: plasma
[27] = tested on: Plasma; assay: Fraction unbound in rat plasma; type: ADME, cell-free
[28] = tested on: Mus musculus; assay: Toxicity in human NCI-H460 cells xenografted nude mouse assessed as body weight loss at 10 mg/kg, po qd for 2 weeks relative to control; type: organism-based; design: dose 10 mg/kg, route oral; conditions: in vivo, 336 h
[29] = tested on: NCI-H460; assay: Antitumor activity against human NCI-H460 cells xenografted in nude mouse assessed as tumor growth inhibition at 10 mg/kg, po qd for 2 weeks relative to control; type: functional
[30] = AUC in BALB/c AJcl-nu/nu mouse at 10 mg/kg, po; type: ADME, organism-based; design: dose 10 mg/kg, route oral; conditions: plasma
[31] = Cmax in BALB/c AJcl-nu/nu mouse at 100 mg/kg, po; type: ADME, organism-based; design: dose 100 mg/kg, route oral; conditions: in vivo
[32] = Cmax in BALB/c AJcl-nu/nu mouse at 10 mg/kg, po; type: ADME, organism-based; design: dose 10 mg/kg, route oral; conditions: in vivo
[33] = tested on: NCI-H460; assay: Antitumor activity against human NCI-H460 cells xenografted in nude mouse assessed as tumor growth inhibition at 5 mg/kg, po qd for 2 weeks relative to control; type: functional
[34] = tested on: Mus musculus; assay: Toxicity in human NCI-H460 cells xenografted nude mouse assessed as mortality at 5 to 10 mg/kg, po qd for 2 weeks relative to control; type: organism-based; design: dose 5-10 mg/kg, route oral; conditions: in vivo, 336 h
[35] = tested on: NCI-H460; assay: cells; conditions: Homo sapiens, NCI-H460, 72 h
Description: Antiproliferative activity against human NCI-H460 cells after 72 hrs by WST8 assay

[36] = tested on: A549; assay: cells; conditions: Homo sapiens, A549, 72 h

| SMILES | bioavailability [1] [%] | solubility thermodynamic [2] [µg/mL] | Vd [3] [L/kg] | remaining at 0.5 h [4] [%] | clearance [5] [mL/min/kg] | AUC [19] [ng·h/mL] | Cmax [20] [ng/mL] | other results |
| --- | --- | --- | --- | --- | --- | --- | --- | --- |
| COc1cc(Nc2ncc3c(n2)-c2ccc(Cl)cc2C(c2c(F)cccc2OC)=NC3)ccc1C(=O)O [ALISERTIB] | – | – | – | – | – | – | – | pIC50 [6]: 6.89; pIC50 [7]: 7.41; pIC50 [8]: 6.13; pIC50 [9]: 7.03; pIC50 [10]: 7.13; pIC50 [11]: 7.11; pIC50 [12]: 7.00; pIC50 [13]: 7.01; pIC50 [14]: < 5.00; pIC50 [15]: 6.48; pIC50 [16]: 7.21; pIC50 [17]: 7.02; pIC50 [18]: 6.77 |
| O=C(NC1CC1)c1ccc(-c2cnc3c(NCC4CCOCC4)cc(OC4CCCCC4)nn23)cc1 | 23 | 10 (≈ 20.4 µM) | 1.6 | 55 | 8.7 | 439 | 33 | – |
| CC(C)(Nc1cc(NCC2CCOCC2)c2ncc(-c3ccc(C(=O)NC4CC4)cc3)n2n1)C(F)(F)F | 24 | 29 (≈ 56.1 µM) | 1.3 | 41 | 11 | 360 | 38 | T/C [21]: 57%; Activity [22]: Non-toxic; Tmax [23]: 1 h; Tmax [24]: 30 min; Activity [25]: 25%; AUC [26]: 48500 ng·h/mL; Fu [27]: 0.51%; Activity [28]: 32%; T/C [29]: 19%; AUC [30]: 8000 ng·h/mL; Cmax [31]: 14000 ng/mL; Cmax [32]: 2430 ng/mL; T/C [33]: 40%; Activity [34]: Toxic |
| CC(=O)O[C@H]1C(=O)[C@@]2(C)[C@H]([C@H](OC(=O)c3ccccc3)[C@]3(O)C[C@H](OC(=O)[C@H](O)[C@@H](NC(=O)c4ccccc4)c4ccccc4)C(C)=C1C3(C)C)[C@]1(OC(C)=O)CO[C@@H]1C[C@@H]2O [PACLITAXEL] | – | – | – | – | – | – | – | pIC50 [6]: 8.21; pIC50 [7]: 8.47; pIC50 [8]: 6.62; pIC50 [9]: 8.40; pIC50 [10]: 8.10; pIC50 [11]: 8.60; pIC50 [35]: 8.00; pIC50 [12]: 8.10; pIC50 [13]: 8.29; pIC50 [14]: 7.10; pIC50 [15]: 8.15; pIC50 [16]: 8.28; pIC50 [17]: 8.21; pIC50 [18]: 8.36 |
| O=C(NC1CC1)c1ccc(-c2cnc3c(NCC4CCOCC4)nccn23)cc1 | – | – | – | – | – | – | – | pIC50 [36]: 5.82 |
| CC(C)(C)Nc1cc(NCC2CCOCC2)c2ncc(-c3ccc(C(=O)NC4CC4)cc3)n2n1 | 36 | 63 (≈ 136 µM) | 1.7 | 59 | 16 | 377 | 50 | – |

Second part, led by results:

| bioavailability [1] [%] | solubility thermodynamic [2] [µg/mL] | Vd [3] [L/kg] | remaining at 0.5 h [4] [%] | clearance [5] [mL/min/kg] | AUC [19] [ng·h/mL] | Cmax [20] [ng/mL] | SMILES | other results |
| --- | --- | --- | --- | --- | --- | --- | --- | --- |
| 0 | 1.3 (≈ 2.6 µM) | 2.2 | 21 | 78 | – | – | O=C(NC1CC1)c1ccc(-c2cnc3c(NCC4CCOCC4)cc(Oc4ccccc4O)nn23)cc1 | – |
| 0 | 2.6 (≈ 5.12 µM) | 2 | 59 | 23 | – | – | N#Cc1ccc(-c2cc(NCC3CCOCC3)c3ncc(-c4ccc(C(=O)NC5CC5)cc4)n3n2)c(N)c1 | – |
| 0 | 0.49 (≈ 0.995 µM) | 4.2 | 42 | 38 | – | – | N#Cc1ccc(-c2cc(NCC3CCOCC3)c3ncc(-c4ccc(C(=O)NC5CC5)cc4)n3n2)cc1 | – |
| 0 | 1 (≈ 2.03 µM) | 5 | 0 | 145 | – | – | N#Cc1ccc(-c2cn3c(-c4ccc(C(=O)NC5CC5)cc4)cnc3c(NCC3CCOCC3)n2)cc1 | – |
| 16 | 8 (≈ 16 µM) | 2 | 39 | 22 | 126 | 16 | O=C(NC1CC1)c1ccc(-c2cnc3c(NCC4CCOCC4)cc(Oc4ccccc4F)nn23)cc1 | – |
